Laboratory results as given in US9040545B2, “Heterocyclyl pyrazolopyrimidine analogues as selective JAK inhibitors” (Cellzome Limited, priority 2010, dated 2015).
pIC50: −log10 of the molar value.

Assays:
Aurora A = target: T1, Aurora A (Homo sapiens, UniProt O14965); assay: Kinobeads assay, Aurora A; format: binding; settings: for pIC50: lysate of pervanadate-treated Jurkat cells, read-out: Inhibition values (IC50) Aur A
T1 construct: cell lysates from Jurkat cells (ATCC TIB-152) used; endogenous in cells; host or cells: Jurkat cells (ATCC TIB-152), treated with pervanadate
T1 sequence (O14965 1-403): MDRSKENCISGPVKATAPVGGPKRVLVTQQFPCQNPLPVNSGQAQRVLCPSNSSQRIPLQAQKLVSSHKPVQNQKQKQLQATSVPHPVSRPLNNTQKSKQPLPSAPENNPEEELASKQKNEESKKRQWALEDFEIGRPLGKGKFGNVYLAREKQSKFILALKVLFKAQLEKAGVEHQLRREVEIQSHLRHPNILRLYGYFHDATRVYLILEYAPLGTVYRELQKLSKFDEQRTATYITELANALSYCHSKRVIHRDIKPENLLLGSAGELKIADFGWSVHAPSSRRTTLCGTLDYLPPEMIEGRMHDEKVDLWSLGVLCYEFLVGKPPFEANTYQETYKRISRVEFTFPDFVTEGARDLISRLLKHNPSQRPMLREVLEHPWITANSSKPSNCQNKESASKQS
Procedure: (§1) The compounds of the present invention as described in the previous examples were tested in a Kinobeads™ assay as described for ZAP-70 (WO-A 2007/137867). Briefly, test compounds (at various concentrations) and the affinity matrix with the immobilized aminopyrido-pyrimidine ligand 24 were added to cell lysate aliquots and allowed to bind to the proteins in the lysate sample. After the incubation time the beads with captured proteins were separated from the lysate. Bound proteins were then eluted and the presence of JAK2 and JAK3 was detected and quantified using specific antibodies in a dot blot procedure and the Odyssey infrared detection system. Dose response curves for individual kinases were generated and IC50 values calculated. Kinobeads™ assays for ZAP-70 (WO-A 2007/137867) and for kinase selectivity profiling (WO-A 2006/134056) have been previously described.
(§2) The affinity matrix was washed two times with 15 mL of 1×DP buffer containing 0.2% NP40 (IGEPAL® CA-630, Sigma, #I3021) and then resuspended in 1×DP buffer containing 0.2% NP40 (3% beads slurry).
(§3) 5×DP buffer 250 mM Tris-HCl pH 7.4, 25% Glycerol, 7.5 mM MgCl2, 750 mM NaCl, 5 mM Na3VO4; filter the 5×DP buffer through a 0.22 μm filter and store in aliquots at −80° C. The 5×DP buffer is diluted with H2O to 1×DP buffer containing 1 mM DTT and 25 mM NaF.
(§4) Stock solutions of test compounds were prepared in DMSO. In a 96 well plate 30 μL solution of diluted test compounds at 5 mM in DMSO were prepared. Starting with this solution a 1:3 dilution series (9 steps) was prepared. For control experiments (no test compound) a buffer containing 2% DMSO was used.
(§5) Cell lysate (approximately 50 mg protein per plate) was thawed in a water bath at room temperature and then stored on ice. To the thawed cell lysate 1×DP 0.8% NP40 buffer containing protease inhibitors (1 tablet for 25 mL buffer; EDTA-free protease inhibitor cocktail; Roche Diagnostics 1873580) was added in order to reach a final protein concentration of 10 mg/mL total protein. The diluted cell lysate was stored on ice. Mixed Molt4/Ramos lysate was prepared by combining one volume of Molt4 lysate and two volumes of Ramos lysate (ratio 1:2).
To a 96 well filter plate (Multiscreen HTS, BV Filter Plates, Millipore #MSBVN1250) were added per well: 100 μL affinity matrix (3% beads slurry), 3 μL of compound solution, and 50 μL of diluted lysate. Plates were sealed and incubated for 3 hours in a cold room on a plate shaker (Heidolph tiramax 1000) at 750 rpm. Afterwards the plate was washed 3 times with 230 μL washing buffer (1×DP 0.4% NP40). The filter plate was placed on top of a collection 1 plate (Greiner bio-one, PP-microplate 96 well V-shape, 65120) and the beads were then eluted with 20 μL of sample buffer (100 mM Tris, pH 7.4, 4% SDS, 0.00025% bromophenol blue, 20% glycerol, 50 mM DTT). The eluate was frozen quickly at −80° C. and stored at −20° C.
The kinases in the eluates were detected and quantified by spotting on nitrocellulose membranes and using a first antibody directed against the kinase of interest and a fluorescently labelled secondary antibody (anti-rabbit IRDye™ antibody 800 (Licor, #926-32211). The Odyssey Infrared Imaging system from LI-COR Biosciences (Lincoln, Nebr., USA) was operated according to instructions provided by the manufacturer (Schutz-Geschwendener et al, 2004. Quantitative, two-color Western blot detection with infrared fluorescence. Published May 2004 by LI-COR Biosciences, www.licor.com).
After spotting of the eluates the nitrocellulose membrane (BioTrace NT; PALL, #BTNT30R) was first blocked by incubation with Odyssey blocking buffer (LICOR, 927-40000) for 1 hour at room temperature. Blocked membranes were then incubated for 16 hours at the temperature shown in Table 5 with the first antibody diluted in Odyssey blocking buffer (LICOR #927-40000). Afterwards the membrane was washed twice for 10 minutes with PBS buffer containing 0.2% Tween 20 at room temperature. […]

JAK2 = target: T2, JAK2 (Homo sapiens, UniProt O60674); assay: Kinobeads assay, JAK2; format: binding; settings: mixed Molt4/Ramos lysate, read-out: Inhibition values (IC50) JAK2
T2 construct: endogenous in cells; host or cells: mixed Molt4/Ramos lysate (1:2)
Procedure: as §1, §2, §3, §4
Molt4 cells (ATCC catalogue number CRL-1582) and Ramos cells (ATCC catalogue number CRL-1596) were grown in 1 L Spinner flasks (Integra Biosciences, #182101) in suspension in RPMI 1640 medium (Invitrogen, #21875-034) supplemented with 10% Fetal Bovine Serum (Invitrogen) at a density between 0.15×106 and 1.2×10^6 cells/mL. Cells were harvested by centrifugation, washed once with 1×PBS buffer (Invitrogen, #14190-094) and cell pellets were frozen in liquid nitrogen and subsequently stored at −80° C. Cells were homogenized in a Potter S homogenizer in lysis buffer: 50 mM Tris-HCl, 0.8% NP40, 5% glycerol, 150 mM NaCl, 1.5 mM MgCl2, 25 mM NaF, 1 mM sodium vanadate, 1 mM DTT, pH 7.5. One complete EDTA-free tablet (protease inhibitor cocktail, Roche Diagnostics, 1873580) per 25 mL buffer was added. The material was dounced 10 times using a mechanized POTTER S, transferred to 50 mL falcon tubes, incubated for 30 minutes on ice and spun down for 10 minutes at 20,000 g at 4° C. (10,000 rpm in Sorvall SLA600, precooled). The supernatant was transferred to an ultracentrifuge (UZ)-polycarbonate tube (Beckmann, 355654) and spun for 1 hour at 100,000 g at 4° C. (33.500 rpm in Ti50.2, precooled). The supernatant was transferred again to a fresh 50 mL falcon tube, the protein concentration was determined by a Bradford assay (BioRad) and samples containing 50 mg of protein per aliquot were prepared. The samples were immediately used for experiments or frozen in liquid nitrogen and stored frozen at −80° C.
as §5
To a 96 well filter plate (Multiscreen HTS, BV Filter Plates, Millipore #MSBVN1250) were added per well: 100 μL affinity matrix (3% beads slurry), 3 μL of compound solution, and 50 μL of diluted lysate. […]

T2 sequence (O60674 whole entry): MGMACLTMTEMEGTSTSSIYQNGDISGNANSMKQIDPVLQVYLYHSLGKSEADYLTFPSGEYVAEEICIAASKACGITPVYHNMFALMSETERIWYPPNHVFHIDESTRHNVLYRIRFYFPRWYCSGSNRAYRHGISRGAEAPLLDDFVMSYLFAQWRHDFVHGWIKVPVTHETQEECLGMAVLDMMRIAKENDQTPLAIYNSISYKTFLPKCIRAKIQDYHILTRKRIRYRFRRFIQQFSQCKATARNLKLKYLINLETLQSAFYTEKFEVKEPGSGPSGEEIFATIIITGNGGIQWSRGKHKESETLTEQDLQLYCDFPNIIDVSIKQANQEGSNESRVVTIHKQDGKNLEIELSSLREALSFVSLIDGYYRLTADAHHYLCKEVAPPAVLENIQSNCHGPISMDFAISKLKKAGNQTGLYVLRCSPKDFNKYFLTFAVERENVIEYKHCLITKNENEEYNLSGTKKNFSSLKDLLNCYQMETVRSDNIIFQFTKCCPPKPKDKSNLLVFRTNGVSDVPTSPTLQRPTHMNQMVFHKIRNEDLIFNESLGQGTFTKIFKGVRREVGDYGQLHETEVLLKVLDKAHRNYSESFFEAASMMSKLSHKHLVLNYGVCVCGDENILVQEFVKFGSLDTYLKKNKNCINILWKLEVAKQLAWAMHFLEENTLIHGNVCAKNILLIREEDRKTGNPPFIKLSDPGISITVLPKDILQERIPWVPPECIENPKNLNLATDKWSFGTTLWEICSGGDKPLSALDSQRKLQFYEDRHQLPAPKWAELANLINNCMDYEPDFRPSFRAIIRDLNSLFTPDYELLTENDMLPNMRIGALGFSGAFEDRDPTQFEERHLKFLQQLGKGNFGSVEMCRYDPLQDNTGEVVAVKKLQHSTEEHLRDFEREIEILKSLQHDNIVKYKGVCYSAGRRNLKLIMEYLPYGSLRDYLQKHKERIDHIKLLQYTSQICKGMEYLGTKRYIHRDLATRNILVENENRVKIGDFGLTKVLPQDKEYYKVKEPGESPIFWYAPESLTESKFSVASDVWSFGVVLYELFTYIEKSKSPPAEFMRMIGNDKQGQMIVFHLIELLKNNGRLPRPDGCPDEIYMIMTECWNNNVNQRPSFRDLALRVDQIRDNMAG

CN(C)CCCn1cc(Nc2ncc3cnn(Cc4cccc(N5CCOCC5=O)c4)c3n2)cn1 [Example 28, 4-(3-((6-((1-(3-(Dimethylamino)propyl)-1H-pyrazol-4-yl)amino)-1H-pyrazolo[3,4-d]pyrimidin-1-yl)methyl)phenyl)morpholin-3-one]
JAK3/AurA Fold Selectivity (Aurora A): >50 Fold
pIC50 (Aurora A): 6.00 to 7.00
pIC50 (JAK2): ≤ 5.00

O=C1COCCN1c1cccc(Cn2ncc3cnc(Nc4cnn(CCO)c4)nc32)c1 [Example 29, 4-(3-((6-((1-(2-Hydroxyethyl)-1H-pyrazol-4-yl)amino)-1H-pyrazolo[3,4-d]pyrimidin-1-yl)methyl)phenyl)morpholin-3-one]
JAK3/AurA Fold Selectivity (Aurora A): 3-10 Fold
pIC50 (Aurora A): 6.00 to 7.00
pIC50 (JAK2): ≤ 5.00

O=C1CCCN1CCCn1cc(Nc2ncc3cnn(Cc4cccc(N5CCOCC5)c4)c3n2)cn1 [Example 30, 1-(3-(4-((1-(3-Morpholinobenzyl)-1H-pyrazolo[3,4-d]pyrimidin-6-yl)amino)-1H-pyrazol-1-yl)propyl)pyrrolidin-2-one]
JAK3/AurA Fold Selectivity (Aurora A): 10-50 Fold
pIC50 (Aurora A): 6.00 to 7.00
pIC50 (JAK2): ≤ 5.00

CN(C)CC1(Cn2cc(Nc3ncc4cnn(Cc5cccc(N6CCOCC6)c5)c4n3)cn2)COC1 [Example 31, N-(1-((3-((Dimethylamino)methyl)oxetan-3-yl)methyl)-1H-pyrazol-4-yl)-1-(3-morpholinobenzyl)-1H-pyrazolo[3,4-d]pyrimidin-6-amine]
JAK3/AurA Fold Selectivity (Aurora A): 3-10 Fold
pIC50 (Aurora A): 6.00 to 7.00
pIC50 (JAK2): ≤ 5.00

CC(CN(C)C)Cn1cc(Nc2ncc3cnn(Cc4cccc(N5CCOCC5)c4)c3n2)cn1 (stereo not drawn) [Example 32, N-(1-(3-(Dimethylamino)-2-methylpropyl)-1H-pyrazol-4-yl)-1-(3-morpholinobenzyl)-1H-pyrazolo[3,4-d]pyrimidin-6-amine]
JAK3/AurA Fold Selectivity (Aurora A): 10-50 Fold
pIC50 (Aurora A): 5.00 to 6.00
pIC50 (JAK2): ≤ 5.00

CN(C)CC(O)Cn1cc(Nc2ncc3cnn(Cc4cccc(N5CCOCC5)c4)c3n2)cn1 (stereo not drawn) [Example 33, 1-(Dimethylamino)-3-(4-((1-(3-morpholinobenzyl)-1H-pyrazolo[3,4-d]pyrimidin-6-yl)amino)-1H-pyrazol-1-yl)propan-2-ol]
JAK3/AurA Fold Selectivity (Aurora A): >50 Fold
pIC50 (Aurora A): 5.00 to 6.00
pIC50 (JAK2): ≤ 5.00

NCCCn1cc(Nc2ncc3cnn(Cc4cccc(N5CCOCC5)c4)c3n2)cn1 [Example 34, N-(1-(3-Aminopropyl)-1H-pyrazol-4-yl)-1-(3-morpholinobenzyl)-1H-pyrazolo[3,4-d]pyrimidin-6-amine]
JAK3/AurA Fold Selectivity (Aurora A): 10-50 Fold
pIC50 (Aurora A): 6.00 to 7.00
pIC50 (JAK2): ≤ 5.00

O=C(CCn1cc(Nc2ncc3cnn(Cc4cccc(N5CCOCC5)c4)c3n2)cn1)NC1CC1 [Example 35, N-Cyclopropyl-3-(4-((1-(3-morpholinobenzyl)-1H-pyrazolo[3,4-d]pyrimidin-6-yl)amino)-1H-pyrazol-1-yl)propanamide]
JAK3/AurA Fold Selectivity (Aurora A): 10-50 Fold
pIC50 (Aurora A): 6.00 to 7.00
pIC50 (JAK2): ≤ 5.00

Cn1cc(Nc2ncc3cnn(Cc4cccc(N5CCNCC5=O)c4)c3n2)cn1 [Example 36, 1-(3-((6-((1-Methyl-1H-pyrazol-4-yl)amino)-1H-pyrazolo[3,4-d]pyrimidin-1-yl)methyl)phenyl)piperazin-2-one]
JAK3/AurA Fold Selectivity (Aurora A): 10-50 Fold
pIC50 (Aurora A): 6.00 to 7.00
pIC50 (JAK2): ≤ 5.00

Cn1cc(Nc2ncc3cnn(Cc4cc(N5CCOCC5)cc(F)c4F)c3n2)cn1 [Example 37, 1-(2,3-Difluoro-5-morpholinobenzyl)-N-(1-methyl-1H-pyrazol-4-yl)-1H-pyrazolo[3,4-d]pyrimidin-6-amine]
JAK3/AurA Fold Selectivity (Aurora A): 10-50 Fold
pIC50 (Aurora A): 5.00 to 6.00
pIC50 (JAK2): ≤ 5.00

Cn1cc(Nc2ncc3cnn(Cc4c(F)ccc(N5CCOCC5)c4F)c3n2)cn1 [Example 38, 1-(2,6-Difluoro-3-morpholinobenzyl)-N-(1-methyl-1H-pyrazol-4-yl)-1H-pyrazolo[3,4-d]pyrimidin-6-amine]
JAK3/AurA Fold Selectivity (Aurora A): 10-50 Fold
pIC50 (Aurora A): 6.00 to 7.00
pIC50 (JAK2): ≤ 5.00
